Assay results: US11840686B2, “Modulation of prekallikrein (PKK) expression” (Ionis Pharmaceuticals, Inc., priority 2013, dated 2023)
Strand notation (5' to 3'): a small letter for the sugar, then the base; units joined by * are phosphorothioate-linked, units joined directly phosphodiester-linked; [ ] holds rarer units or linkages, { } end groups; capitals alone tell only the bases. e = 2'-O-(2-methoxyethyl) (MOE); [5mC] = 5-methylcytosine; d = 2'-deoxy (DNA)

Key:
[1] = Kidney function: plasma BUN and creatinine in cynomolgus monkeys (Example 8)
Protocol: Prior to the study, the monkeys were kept in quarantine for a 30-day period, during which the animals were observed daily for general health. The monkeys were 2-4 years old and weighed between 2 and 4 kg. Ten groups of four randomly assigned male cynomolgus monkeys each were injected subcutaneously with ISIS oligonucleotide or PBS. PBS solution or ISIS oligonucleotides at a dose of 40 mg/kg were administered initially with a loading regimen consisting of four doses on the first week of the study (days 1, 3, 5, and 7), followed by a maintenance regimen consisting of once weekly administration starting on Day 14 (weeks 2 to 13). Subcutaneous injections were performed in clock-wise rotations at 4 sites on the back; one site per dose. The injection sites were delineated by tattoo, while sedated using ketamine, and were separated by a minimum of 3 cm.
To evaluate the effect of ISIS oligonucleotides on kidney function, the monkeys were fasted overnight. Approximately, 1.5 mL of blood samples were collected from all the study groups. Blood was collected in tubes without anticoagulant for serum separation. The tubes were kept at room temperature for a minimum of 90 min and then centrifuged at 3,000 rpm for 10 min. Levels of BUN and creatinine were measured using a Toshiba 120FR NEO chemistry analyzer (Toshiba Co., Japan).

[2] = Tolerability / clinical observation of cynomolgus monkeys (Example 8); type: in vivo, cynomolgus monkey; conditions: primates, Example 8
Outline: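 Cynomolgus monkeys received ISIS antisense oligonucleotides cross-reactive with the rhesus target sequence. Animals were checked at least once daily for signs of illness or distress, and animals in poor or moribund condition were flagged for further monitoring.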

human PKK mRNA = experiment: Antisense inhibition of human PKK mRNA in HepaRG cells, 3,000 nM (Example 1); type: cell-based; conditions: Table 4; HepaRG cells, electroporation with 3,000 nM antisense oligonucleotide, approx. 24 hours; PKK mRNA by RT-PCR (RTS3454), relative to untreated control cells
Outline: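 HepaRG cells, 20,000 per well, were electroporated with 3,000 nM 5-10-5 MOE gapmer (phosphorothioate, 5-methylcytosine). After about 24 h, PKK mRNA was measured by qRT-PCR with primer probe set RTS3454 and normalised to RIBOGREEN total RNA. Values are percent inhibition versus untreated cells.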

PKK protein = PKK protein in BALB/c mice plasma by immunoblot (Example 10); type: in vivo, mouse; conditions: for % inhibition of PKK protein in BALB/c mice plasma: twice a week for 3 weeks, relative to PBS control
Protocol: (§1) Six groups of male BALB/c mice each were treated with 2.5 mg/kg, 5.0 mg/kg, 10.0 mg/kg, 20.0 mg/kg, 40.0 mg/kg, or 80.0 mg/kg of ISIS 482584, administered subcutaneously twice a week for 3 weeks (weekly doses of 5.0 mg/kg, 10.0 mg/kg, 20.0 mg/kg, 40.0 mg/kg, 80.0 mg/kg, or 160.0 mg/kg). A control group of BALB/c mice was treated with PBS, administered subcutaneously twice a week for 3 weeks. Two days after the last dose of antisense oligonucleotide or PBS, mice from all groups were anesthetized with 150 mg/kg ketamine mixed with 10 mg/kg xylazine, administered by intraperitoneal injection. Liver was collected for RNA analysis.
Plasma was collected in tubes containing sodium citrate as an anticoagulant. The samples were run on a 4-12% gradient SDS-polyacrylamide gel (Invitrogen), followed by immunoblotting with murine PKK antibody (R&D Systems). Blots were incubated with secondary fluorophore-labeled antibodies (LI-COR) and imaged in an Odyssey Imager (LI-COR). Results are presented as percent inhibition of PKK, relative to PBS control.

thrombus formation = experiment: Stenosis-induced inferior vena cava thrombosis model, thrombi weights (Example 22); type: in vivo, mouse; conditions: BALB/c mice; for Thrombi weight: 24 hrs after stenosis
Protocol: Reduced blood flow and endothelial damage are hallmarks of this model, also known as the St. Tomas model.
Four groups of 6-8 BALB/c mice were treated with 5 mg/kg, 10 mg/kg, 20 mg/kg, or 40 mg/kg of ISIS 482584, administered subcutaneously twice a week for 3 weeks (weekly doses of 10 mg/kg, 20 mg/kg, 40 mg/kg, or 80 mg/kg). A control group of 8 BALB/c mice was treated with PBS, administered subcutaneously twice a week for 3 weeks. Two days after the last dose of antisense oligonucleotide or PBS was administered, mice from all groups were anesthetized with 2.5% inhalant isoflurane. The IVC of the mice was exposed via a midline abdominal incision below the left renal vein, and was separated from the abdominal aorta by blunt dissection. A 6-0 silk tie (Ethicon, UK) was placed behind the blood vessel just below the left renal vein and a metal 4-0 suture (Ethicon, UK) was placed longitudinally over the IVC to tie the silk tie on top. The metal suture was then removed. Two neurovascular surgical clips (Braun Medical Inc, PA) were placed at two separate positions below the ligation for 20 seconds each, after which they were removed. The abdominal cavity contents were then replaced and the abdomen was closed. After 24 hrs, the IVC was exposed and checked for thrombi formation. All thrombi formed were collected and fixed in 10% formalin for 24 hrs.
The thrombi were weighed and the results are presented in Table 85, expressed in milligrams.

murine PKK mRNA = experiment: PKK mRNA in BALB/c mice liver (Example 10); type: in vivo, mouse; conditions: for % inhibition of PKK mRNA in BALB/c mice liver: twice a week for 3 weeks, relative to PBS control
Protocol: ISIS 482584 was tested for its effect on murine PKK mRNA in vivo.
as §1
RNA was extracted from liver tissue for real-time PCR analysis of PKK. PKK mRNA levels were measured using the murine primer probe set (forward sequence […], designated herein as SEQ ID NO: 2231; reverse sequence […], designated herein as SEQ ID NO: 2232; probe sequence […], designated herein as SEQ ID NO: 2233). Results are presented as percent inhibition of PKK, relative to PBS control.

[3] = BALB/c mice, 2.5-80.0 mg/kg s.c. twice a week for 3 weeks, vs PBS

With “Tes Ges mCes Aes Aes Gds Tds mCds Tds mCds Tds Tds Gds Gds mCds Aes Aes Aes mCes Ae [ISIS 546254]” the “Plasma BUN” value ([1]; 40 mg/kg s.c.) was 25.7 mg/dL, the “Plasma Creatinine” value ([1]; 40 mg/kg s.c.) was 0.9 mg/dL and the “effect on kidney function” value ([1]; plasma chemistry) was “well tolerated in terms of the kidney function”. For the same substance, the “tolerability in primates” value [2] was “tolerable in primates”.

For “531231 (eT*eA*eT*e[5mC]*eA*d[5mC]*dT*dG*dT*dA*d[5mC]*dT*dA*dG*dT*eT*eT*e[5mC]*e[5mC]*eT) [compound 531231]”, the “% inhibition” value (human PKK mRNA) was 94%.

With “ISIS 482584: 5-10-5 MOE gapmer targeting murine PKK, GGCATATTGGTTTTTGGAAT; SEQ ID NO: 2244 (antisense eG*eG*e[5mC]*eA*eT*dA*dT*dT*dG*dG*dT*dT*dT*dT*dT*eG*eG*eA*eA*eT)” the “% inhibition of PKK protein in BALB/c mice plasma” value (from here on “% inhibition of PKK protein”) (PKK protein; 5 mg/kg/wk sc) was 5%, the “% inhibition of PKK protein” value (PKK protein; 10 mg/kg/wk sc) was 24% and the “% inhibition of PKK protein” value (PKK protein; 20 mg/kg/wk sc) was 47%. For the same substance, the “% inhibition of PKK protein” value (PKK protein; 40 mg/kg/wk sc) was 76%, the “% inhibition of PKK protein” value (PKK protein; 80 mg/kg/wk sc) was 81% and the “reduction of PKK plasma protein” value (PKK protein; [3]) was “significant dose-dependent reduction of PKK plasma protein”. For the same substance, the Thrombi weight (thrombus formation; 10 mg/kg/wk sc 3 weeks) was 8 mg, the Thrombi weight (thrombus formation; 20 mg/kg/wk sc 3 weeks) was 6 mg and the Thrombi weight (thrombus formation; 40 mg/kg/wk sc 3 weeks) was 5 mg. The Thrombi weight (thrombus formation; 80 mg/kg/wk sc 3 weeks) was 3 mg, the “thrombus weight” value (thrombus formation; increasing doses 5-40 mg/kg s.c. twice a week for 3 weeks) was “corresponding decrease in thrombus weight” and the “% inhibition of PKK mRNA in BALB/c mice liver” value (from here on “% inhibition of PKK mRNA”) (murine PKK mRNA; 5 mg/kg/wk sc) was 3%. For the same substance, the “% inhibition of PKK mRNA” value (murine PKK mRNA; 10 mg/kg/wk sc) was 42%, the “% inhibition of PKK mRNA” value (murine PKK mRNA; 20 mg/kg/wk sc) was 68% and the “% inhibition of PKK mRNA” value (murine PKK mRNA; 40 mg/kg/wk sc) was 85%. The “% inhibition of PKK mRNA” value (murine PKK mRNA; 80 mg/kg/wk sc) was 91%, the “% inhibition of PKK mRNA” value (murine PKK mRNA; 160 mg/kg/wk sc) was 94% and the “reduction of PKK mRNA in liver” value (murine PKK mRNA; [3]) was “significant dose-dependent reduction of PKK mRNA”.
